From patent US11360104B2, “Microbial-based biosensors” (TRUSTEES OF BOSTON UNIVERSITY, priority 2017, dated 2022)

Key:
[1] = system: Pimelobacter simplex; assay: Solvent and steroid exposure growth curves; details: P. simplex, starting OD 0.005, constant solvent
[2] = system: P. simplex bacteria (steroid responsive genome island, SRGI); assay: RNA-Seq screen of steroid treated P. simplex against solvent controls; format: cell-based, Pimelobacter simplex; details: Log2 fold change vs solvent control
Description: (§1) In order to identify steroid binding Transcription Factors, a whole transcriptome RNA sequencing (RNA-Seq) screen was developed (FIG. 7). The growth of Pimelobacter simplex bacteria was profiled with respect to the starting inoculation density, solvent toxicity, and the addition of steroids (FIG. 16). […] P. simplex bacteria were screened against the steroid solvents ethanol (EtOH) and dimethyl sulfoxide (DMSO). […] Steroid growth curves were similarly performed using a starting OD of 0.005 and constant solvent dosing with titrations of steroids. […] P. simplex bacteria were grown in the presence of 700 μM testosterone, 21.88 μM progesterone, 87.50 μM estrone, 21.88 μM 17β-estradiol, 21.88 μM hydrocortisone, or 175.00 μM aldosterone concentrations were selected for comparison.
(§2) Using accession gene tags, genes were annotated for steroid relevant enzymes or transcription factors. […] Allosteric TF binding sequences are often palindromes and typically located near the start of its gene location in an intergenic space. With such a design, the allosteric TF can regulate itself or the open reading frame (ORF) near it in response to its effector molecule. […] Once identified, the TFs were cloned and recombinantly expressed for thorough characterization.
(§3) Cells were grown in 6 mL volumes of media at the OD, solvent, and steroid concentrations found from the growth curves in 14 mL polypropylene round-bottom tubes (Corning #352059) in technical duplicate. The same controls as in the steroid exposure growth curve were used for setting up RNA extraction samples. The cells were incubated at their corresponding temperature with continuous orbital shaking at 150 rpm until the end of lag-phase, mid-log phase, or stationary phase from the start of inoculation. Afterward, samples were removed and a 1:1 ratio of RNAprotect Bacteria Reagent (Qiagen #76506) was added followed by spinning down at 4° C. for 10 minutes at 4000 g. Supernatant was removed and the pellet re-suspended in 300 μL of RNAprotect and transferred into 2.0 mL Safe-Lock Tubes (Eppendorf #3101). The samples were then spun down once again at 4° C. for 10 minutes at 10000 g. Once the supernatant has been removed the samples were placed on ice and ready for RNA extraction. RNA extraction was done by Qiacube (Qiagen #9001292) set to the RNeasy Protect Bacteria Mini Kit protocol of bacterial cell pellet with enzymatic lysis. Tube A was prepared as described except with the addition of 150 mg/mL lysozyme (Sigma-Aldrich #L6876) and 20 mg/mL proteinase K (Roche #03115879001) all diluted in 1xTE buffer. RNA samples were subsequently quantified using Qubit RNA HS Assay Kit (Thermo Fisher Scientific #Q32852) and analyzed using a RNA 6000 Pico Kit (Agilent 5067-1513) in a 2100 Bioanalyzer (Agilent G2939A). RNA samples were either immediately used for RNA-Seq library preparation or stored long-term at −80° C.
(§4) RNA-Seq libraries were then produced from these samples using a slightly modified ScriptSeq v2 RNA-Seq Library Preparation Kit (Illumina 455A/22124) ensuring use of unique index primers through ScriptSeq Index PCR Primers (Sets 1-4) 48 rxns/set (Illumina #SSIP1234).

[3] = system: steroid responsive genome island (SRGI); assay: Whole transcriptome RNA-Seq of steroid treated P. simplex; format: cell-based, Pimelobacter simplex; details: P. simplex exposed to steroid vs solvent control, Log2 fold change
Description: as §1, §2, §3, §4

With `CC(=O)[C@H]1CC[C@H]2[C@@H]3CCC4=CC(=O)CC[C@]4(C)[C@H]3CC[C@]12C` [PRG, Progesterone] the “highest steroid concentration exhibiting normal growth profile” value [1] was 21.88 µM, the “upregulation of genes inside the SRGI (in words)” value [2] was “upregulation of genes inside the SRGI were observed” and the “upregulation of genes inside the SRGI” value [3] was “observed”.
